This assay deals with Human eIF4E (Homo sapiens (Human), UniProt P06730). The experiment in a line: Human eIF4E/4G binding assay (time-resolved fluorescence, HH-eIF4E and biotin-labeled 4G2 peptide). As to conditions: inhibition of binding of His-tagged human eIF4E (aa 28-217) to biotin-labeled 4G2 peptide.
Chain of Human eIF4E (P06730 28-217): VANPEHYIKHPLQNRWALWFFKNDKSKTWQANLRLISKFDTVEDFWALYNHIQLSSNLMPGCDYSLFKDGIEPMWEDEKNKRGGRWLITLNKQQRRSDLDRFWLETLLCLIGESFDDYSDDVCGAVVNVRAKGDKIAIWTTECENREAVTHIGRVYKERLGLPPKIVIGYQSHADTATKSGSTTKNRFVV

As to `O=Cc1ccccc1-c1ccc(-c2nc(-c3ccc(Cl)c(Cl)c3)cs2)cc1C(=O)O` [Example 123, 4-[4-(3,4-Dichloro-phenyl)-thiazol-2-yl]-2′-formyl-biphenyl-2-carboxylic acid], the IC50 (usually the midpoint of a concentration-inhibition curve) worked out at 5500 nM. As for `O=C(O)c1cc(-c2nc(-c3ccc(Cl)c(Cl)c3)cs2)ccc1-c1ccc(C(F)(F)F)cc1C(F)(F)F` [Example 125, 4-[4-(3,4-Dichloro-phenyl)-thiazol-2-yl]-2′,4′-bis-trifluoromethyl-biphenyl-2-carboxylic acid], the figure is 3000 nM; as for `O=C(O)c1cc(-c2nc(-c3ccc(Cl)c(Cl)c3)cs2)ccc1-c1cccc(C(F)(F)F)c1Cl` [Example 126, 2′-Chloro-4-[4-(3,4-dichloro-phenyl)-thiazol-2-yl]-3′-trifluoromethyl-biphenyl-2-carboxylic acid], 2800 nM; as for `O=C(O)c1cc(-c2nc(-c3ccc(Cl)c(Cl)c3)cs2)ccc1-c1ccc(C(F)(F)F)cc1Cl` [Example 127, 2′-Chloro-4-[4-(3,4-dichloro-phenyl)-thiazol-2-yl]-4′-trifluoromethyl-biphenyl-2-carboxylic acid], 1600 nM.

`O=C(O)c1cc(-c2nc(-c3ccc(Cl)c(Cl)c3)cs2)ccc1-c1cc(C(F)(F)F)ccc1Cl` [Example 128, 2′-Chloro-4-[4-(3,4-dichloro-phenyl)-thiazol-2-yl]-5′-trifluoromethyl-biphenyl-2-carboxylic acid]: the IC50 is 1100 nM.

Molecule `O=C(O)c1cc(-c2nc(-c3ccc(Cl)c(Cl)c3)cs2)ccc1-c1ccc(F)cc1` [Example 129, 4-[4-(3,4-Dichloro-phenyl)-thiazol-2-yl]-4′-fluoro-biphenyl-2-carboxylic acid] gave a half-inhibitory concentration (IC50) of 2600 nM. As to `O=C(O)c1cc(-c2nc(-c3ccc(Cl)c(Cl)c3)cs2)ccc1-c1cc(F)ccc1F` [Example 131, 4-[4-(3,4-Dichloro-phenyl)-thiazol-2-yl]-2′,5′-difluoro-biphenyl-2-carboxylic acid], the 50% inhibitory concentration (IC50) turned out to be 1800 nM. In turn, `O=C(O)c1cc(-c2nc(-c3ccc(Cl)c(Cl)c3)cs2)ccc1-c1ccc(F)cc1F` [Example 132, 4-[4-(3,4-Dichloro-phenyl)-thiazol-2-yl]-2′,4′-difluoro-biphenyl-2-carboxylic acid] displayed an IC50 of 5600 nM. Molecule `O=C(O)c1cc(-c2nc(-c3ccc(Cl)c(Cl)c3)cs2)ccc1-c1cc(F)cc(F)c1F` [Example 133, 4-[4-(3,4-Dichloro-phenyl)-thiazol-2-yl]-2′,3′,5′-trifluoro-biphenyl-2-carboxylic acid] registered an IC50 of 1600 nM. Turning to `O=C(O)c1cc(-c2nc(-c3ccc(Cl)c(Cl)c3)cs2)ccc1-c1ccc(F)cc1Cl` [Example 134, 2′-Chloro-4-[4-(3,4-dichloro-phenyl)-thiazol-2-yl]-4′-fluoro-biphenyl-2-carboxylic acid], the half-inhibitory concentration (IC50) was determined as 1400 nM. Regarding `O=C(O)c1cc(-c2nc(-c3ccc(Cl)c(Cl)c3)cs2)ccc1-c1ccccc1F` [Example 137, 4-[4-(3,4-Dichloro-phenyl)-thiazol-2-yl]-2′-fluoro-biphenyl-2-carboxylic acid], the IC50 worked out at 3600 nM. As to `O=C(O)c1cc(-c2nc(-c3ccc(Cl)c(Cl)c3)cs2)ccc1-c1cccc(F)c1F` [Example 138, 4-[4-(3,4-Dichloro-phenyl)-thiazol-2-yl]-2′,3′-difluoro-biphenyl-2-carboxylic acid], the IC50 was determined as 1900 nM. Under `Cc1ccc(F)c(-c2ccc(-c3nc(-c4ccc(Cl)c(Cl)c4)cs3)cc2C(=O)O)c1Cl` [Example 139, 2′-Chloro-4-[4-(3,4-dichloro-phenyl)-thiazol-2-yl]-6′-fluoro-3′-methyl-biphenyl-2-carboxylic acid] stands 1600 nM.

Regarding `Cc1ccccc1-c1ccc(-c2nc(-c3ccc(Cl)c(Cl)c3)cs2)cc1C(=O)O` [Example 141, 4-[4-(3,4-Dichloro-phenyl)-thiazol-2-yl]-2′-methyl-biphenyl-2-carboxylic acid], the IC50 stood at 5900 nM.

In the case of `Cc1cscc1-c1ccc(-c2nc(-c3ccc(Cl)c(Cl)c3)cs2)cc1C(=O)O` [Example 142, 5-[4-(3,4-Dichloro-phenyl)-thiazol-2-yl]-2-(4-methyl-thiophen-3-yl)-benzoic acid], the IC50 came out at 4200 nM. Take `Cc1ccc(Cl)c(-c2ccc(-c3nc(-c4ccc(Cl)c(Cl)c4)cs3)cc2C(=O)O)c1` [Example 144, 2′-Chloro-4-[4-(3,4-dichloro-phenyl)-thiazol-2-yl]-5′-methyl-biphenyl-2-carboxylic acid]: the half-maximal inhibitory concentration (IC50) amounted to 1100 nM. Turning to `O=C(O)c1cc(-c2nc(-c3ccc(Cl)c(Cl)c3)cs2)ccc1-c1ccsc1Cl` [Example 145, 2-(2-Chloro-thiophen-3-yl)-5-[4-(3,4-dichloro-phenyl)-thiazol-2-yl]-benzoic acid], the IC50 is 2200 nM. Molecule `O=C(O)c1cc(-c2nc(-c3ccc(Cl)c(Cl)c3)cs2)ccc1-c1sccc1Cl` [Example 146, 2-(3-Chloro-thiophen-2-yl)-5-[4-(3,4-dichloro-phenyl)-thiazol-2-yl]-benzoic acid] displayed a concentration for half-maximal inhibition (IC50) of 1700 nM. Consider `O=C(O)c1cc(-c2nc(-c3ccc(Cl)c(Cl)c3)cs2)ccc1-c1ccc(Cl)cc1` [Example 147, 4′-Chloro-4-[4-(3,4-dichloro-phenyl)-thiazol-2-yl]-biphenyl-2-carboxylic acid], for which the IC50 came out at 1700 nM. As for `O=C(O)c1cc(-c2nc(-c3ccc(Cl)c(Cl)c3)cs2)ccc1-c1cc(Cl)ccc1Cl` [Example 148, 2′,5′-Dichloro-4-[4-(3,4-dichloro-phenyl)-thiazol-2-yl]-biphenyl-2-carboxylic acid], the IC50 worked out at 1700 nM. Regarding `O=C(O)c1cc(-c2nc(-c3ccc(Cl)c(Cl)c3)cs2)ccc1-c1cc(Cl)cc(Cl)c1Cl` [Example 149, 2′,3′,5′-Trichloro-4-[4-(3,4-dichloro-phenyl)-thiazol-2-yl]-biphenyl-2-carboxylic acid], the half-inhibitory concentration (IC50) is > 80000 nM. Take `O=C(O)c1cc(-c2nc(-c3ccc(Cl)c(Cl)c3)cs2)ccc1-c1ccc(Cl)cc1Cl` [Example 150, 2′,4′-Dichloro-4-[4-(3,4-dichloro-phenyl)-thiazol-2-yl]-biphenyl-2-carboxylic acid]: the 50% inhibitory concentration (IC50) came out at 1400 nM. Under `O=C(O)c1cc(-c2nc(-c3ccc(Cl)c(Cl)c3)cs2)ccc1-c1ccccc1` [Example 151, 4-[4-(3,4-Dichloro-phenyl)-thiazol-2-yl]-biphenyl-2-carboxylic acid] stands 5900 nM; under `O=C(O)c1cc(-c2nc(-c3ccc(Cl)c(Cl)c3)cs2)ccc1-c1cccc(Cl)c1Cl` [Example 152, 2′,3′-Dichloro-4-[4-(3,4-dichloro-phenyl)-thiazol-2-yl]-biphenyl-2-carboxylic acid], 2100 nM; under `O=C(O)c1cc(-c2nc(-c3ccc(Cl)c(Cl)c3)cs2)ccc1-c1ccccc1Cl` [Example 153, 2′-Chloro-4-[4-(3,4-dichloro-phenyl)-thiazol-2-yl]-biphenyl-2-carboxylic acid], 2200 nM.

The record behind these values is patent US9073881B2, “Benzoic acid derivatives” (HOFFMANN-LA ROCHE INC., priority 2011, dated 2015).
